What was measured:
[1] = test system: Winston Salem-strain bed bugs; assay: Residual exposure to mixtures on wood panels, mortality/morbidity and knockdown (Example 7); format: in vivo, Cimex lectularius
Description: (§1) A bioassay was performed to determine the knockdown and mortality rates of bed bugs exposed to the residual of mixtures of clothianidin, metofluthrin, and PBO. Two bed bug (Cimex lectularius) strains were used; Harlan-strain which is susceptible to pyrethroids, and Winston Salem-strain which is known to have a 500-fold resistance level to deltamethrin. In this bioassay, a mixture of clothianidin, metofluthrin, and PBO with fumed silica was compared to combinations of clothianidin and metofluthrin, clothianidin and PBO, and clothianidin.
(§2) Unpainted wood was cut into 6 inch square panels and a DeVries spray booth was used to deliver 1 ml of test substance in an even spray that provided approximately 1 gal/1000 sq. ft. delivery rate. A cone jet nozzle was used approximately 12 inches directly above the wood panels. The panels were allowed to dry and then aged indoors in a climate controlled environment with temperatures ranging from approximately 65 to 72 degrees Fahrenheit. All tests were done in 4 replicates (40 total insects per treatment).
(§3) Insects were fed a blood meal the day prior to testing. The inner walls of Petri dishes were treated with Fluon to prevent the insects from attaching to the sides of the dishes during treatment.
(§4) On the day of testing, 10 insects were placed in each Petri dish. The bed bugs were separated with tweezers and observed to be healthy and active before treatments. The Petri dishes were inverted onto the treated surface and gentle tapping was sometimes used to dislodge the insects from the dishes. After 5 minutes, the insects were returned to containers for mortality/morbidity and knockdown observations.
(§5) Insects were considered moribund when they were knocked down and unable to right themselves when probed. Insects were considered dead when they had no body movement. Untreated controls were handled in the same manner except that they were exposed to water treated wood panels.
(§6) Insects were exposed to the wood panels on day 1 and day 30. Mortality and morbidity observations were taken until the untreated control mortality reached […] (day 7 following exposure).
(§7) The bed bugs were observed and recordings were taken at 10, 20, 30, 60 and 240 minutes following exposure to the wood panels. Table 4 provides the percentage of bed bugs from all 4 replicates (40 total insects per treatment) that were knocked down 10 and 240 minutes after exposure to the wood panels.

[2] = test system: Harlan-strain bed bugs; assay: as above; format: in vivo, Cimex lectularius; details: for % Morbidity / % Mortality: Residual Efficacy at Day 30
Description: as §1, §2, §3, §4, §5, §6, §7

[3] = Residual Efficacy at Day 1, 1 day
[4] = Residual Efficacy at Day 1, 2 day
[5] = Residual Efficacy at Day 1, 3 day
[6] = Residual Efficacy at Day 30, 1 DAT
[7] = Residual Efficacy at Day 30, 2 DAT
[8] = Residual Efficacy at Day 30, 3 DAT
[9] = Residual Efficacy at Day 30, 4 DAT
[10] = Residual Efficacy at Day 30, 5 DAT
[11] = Residual Efficacy at Day 30, 6 DAT
[12] = Residual Efficacy at Day 30, 7 DAT

CN/C(=N\[N+](=O)[O-])NCc1cnc(Cl)s1 [0.4% Cloth.]
Knockdown ([1]; Day 1 @ 10 minutes): 0% | Knockdown ([1]; Day 1 @ 240 minutes): 50% | Knockdown ([1]; Day 30 @ 10 minutes): 3% | Knockdown ([1]; Day 30 @ 240 min): 28% | % Morbidity [1, 3]: 18% | % Mortality [1, 3]: 60% | % Mortality + Morbidity [1, 3]: 78% | % Morbidity [1, 4]: 18% | % Mortality [1, 4]: 60% | % Mortality + Morbidity [1, 4]: 78% | % Morbidity [1, 5]: 12.5% | % Mortality [1, 5]: 87.5% | % Mortality + Morbidity [1, 5]: 100% | % Morbidity [1, 6]: 33% | % Mortality [1, 6]: 10% | % Morbidity [1, 7]: 28% | % Mortality [1, 7]: 20% | % Morbidity [1, 8]: 18% | % Mortality [1, 8]: 43% | % Morbidity [1, 9]: 10% | % Mortality [1, 9]: 53% | % Morbidity [1, 10]: 8% | % Mortality [1, 10]: 63% | % Morbidity [1, 11]: 3% | % Mortality [1, 11]: 70% | % Morbidity [1, 12]: 5% | % Mortality [1, 12]: 70% | Knockdown ([2]; Day 1 @ 10 minutes): 48% | Knockdown ([2]; Day 1 @ 240 minutes): 95% | Knockdown ([2]; Day 30 @ 10 minutes): 20% | Knockdown ([2]; Day 30 @ 240 min): 95% | % Morbidity ([2]; 1 DAT): 75% | % Mortality ([2]; 1 DAT): 23% | % Morbidity ([2]; 2 DAT): 33% | % Mortality ([2]; 2 DAT): 68% | % Morbidity ([2]; 3 DAT): 0% | % Mortality ([2]; 3 DAT): 100%
